Assay results from ChEMBL document CHEMBL4138088, “Novel 1-(7-ethoxy-1-benzofuran-2-yl) substituted chalcone derivatives: Synthesis, characterization and anticancer activity” (Eur J Med Chem, 2017).
pIC50: −log10 of the molar value. Calls of active or inactive are those of the source. The calls are words filed in the database; no cut-off is given here.

Legend:
Assay type in all cases: functional, cell-based
[1] = tested on: HCT-116; assay: Antiproliferative activity against human HCT116 cells after 48 hrs by MTT assay; conditions: HCT-116, 48 h
[2] = tested on: HCT-116; assay: Antiproliferative activity against human HCT116 cells after 6 hrs by MTT assay; conditions: HCT-116, 6 h
[3] = tested on: HCT-116; assay: Antiproliferative activity against human HCT116 cells after 12 hrs by MTT assay; conditions: HCT-116, 12 h
[4] = tested on: HCT-116; assay: Antiproliferative activity against human HCT116 cells after 24 hrs by MTT assay; conditions: HCT-116, 24 h
[5] = tested on: MCF7; assay: Growth inhibition of human MCF7 cells at 20 uM after 72 hrs by SRB assay
[6] = tested on: PC-3; assay: Growth inhibition of human PC3 cells at 20 uM after 72 hrs by SRB assay
[7] = tested on: MCF7; assay: Growth inhibition of human MCF7 cells at 20 uM after 72 hrs by ATP bioluminescence assay
[8] = tested on: PC-3; assay: Growth inhibition of human PC3 cells at 20 uM after 72 hrs by ATP bioluminescence assay

| SMILES | pIC50 [1] | pIC50 [2] | pIC50 [3] | pIC50 [4] | growth inhibition (GI) [5] | growth inhibition (GI) [6] | growth inhibition (GI) [7] | growth inhibition (GI) [8] |
| --- | --- | --- | --- | --- | --- | --- | --- | --- |
| COc1cc(/C=C/C(=O)c2cccc(-n3c(C)nc4ccccc4c3=O)c2)ccc1O | 4.80 | 3.22 | 3.85 | 4.59 |  |  |  |  |
| CCOc1cccc2cc(C(=O)/C=C/c3cc(OC)c(OC)cc3OC)oc12 |  |  |  |  | Active | Active | Active | Active |
| CCOc1cccc2cc(C(=O)/C=C/c3ccc[nH]3)oc12 |  |  |  |  | Active |  | Active |  |
| CCOc1cccc2cc(C(=O)/C=C/c3ccco3)oc12 |  |  |  |  | Active |  | Active |  |
